In PMC11206246, “Cyclosporin A-Based PROTACs Can Deplete Abundant Cellular Cyclophilin A without Suppressing T Cell Activation” (Molecules, 2024):
Where a SMILES comes first, the peptide text is derived from it. The star is where a group is joined. Cbz = O=C(OCc1ccccc1)*

Tests used:
CypA [1] = target: T1, CypA (Homo sapiens, UniProt P62937); settings: cited from earlier work
CypA [2] = target: T1, CypA; assay: Degradation of endogenous CypA in HeLa cells (western blot); type: cell-based; parameters: The degradation of endogenous CypA in HeLa cells was investigated; endogenous in cells; host or cells: HeLa; settings: 1 μM epoxomicin, 3 μM MG-132, 1 μM CsA, 10 μM VHL ligand
Experimental: (§1) HeLa cells and primary human dermal fibroblasts isolated from neonatal foreskin (HDFn) were adherent cells and were cultured in commercially available, ready-to-use DMEM ([…], Gibco, Waltham, MA, USA) supplemented with 10% (v/v) FBS (Fetal Bovine Serum, Sigma-Aldrich) and antibiotics (Streptomycin/Penicillin, 1:1000 dilution) in polystyrene culture flasks. Growth conditions for all cell lines were maintained in a humidified chamber at 37 °C and 5% CO2. For subculturing or prior counting, the cells were treated with trypsin-EDTA (Life Technologies GmbH, Carlsbad, CA, USA) to detach them from the surface.
(§2) A total of 5 × 10^5 HeLa cells or HDFn was plated in 6-well plates the day before treatment. […] An amount of 200 μL PROTAC dilutions (0.1 μM and 1.0 μM) in DMSO (final concentration 0.1% (v/v)) were added to the culture medium and incubated at 37.0 °C and 5.0% CO2 for the desired time. As a blank, the cells were incubated with 200 μL DMSO under the same conditions. After the appropriate incubation time, the medium was aspirated, and the cells were washed twice with 1× PBS.
(§3) Cells were lysed in ice-cold 1× Laemmli buffer (100 mM DTT) after two washes with 1× PBS. After denaturation (95 °C for 5 min) and shearing of the DNA by sonication, the samples were loaded on Tricine-SDS-PAGE, electrophoresed, and blotted onto a PVDF membrane. After staining with S-Ponceau staining solution and blocking, the membranes were incubated overnight at 4 °C in primary rabbit anti-CypA antibody (Cell Signaling Technology #2175S, Danvers, MA, USA) and for 1 h at room temperature with secondary antibody (IRDye® 800 CW Goat anti-Rabbit IgG Secondary Antibody, LI-COR). All membranes were then reprobed with rabbit anti-beta actin (Cell Signaling Technology #4967) to ensure equal protein loading. The intensities of the bands on western blot films were quantified using the LI-COR Odyssey Imaging System and the software Image Studio Lite (version 3.1). The CypA values were normalized to β-actin, and DMSO was arbitrarily assigned a value of 100% for comparison purposes.

CypA [3] = target: T1, CypA; assay: Degradation of CypA in HDFn fibroblasts (western blot); type: cell-based; parameters: endogenous in cells; host or cells: primary PBMCs from healthy donors; settings: 1 μM epoxomicin, 3 μM MG-132, 1 μM CsA, 10 μM VHL ligand
Experimental: as §1, §2, §3

T1 sequence (P62937 whole entry): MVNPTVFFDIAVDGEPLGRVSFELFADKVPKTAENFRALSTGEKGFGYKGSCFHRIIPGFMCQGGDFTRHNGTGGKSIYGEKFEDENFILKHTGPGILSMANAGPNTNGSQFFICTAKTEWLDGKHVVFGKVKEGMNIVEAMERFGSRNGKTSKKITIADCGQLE

C/C=C/C[C@@H](C)[C@@H](O)[C@H]1C(=O)N[C@@H](CC)C(=O)N(C)[C@H](C)C(=O)N(CC)[C@@H](C(C)C)C(=O)N[C@@H](C(C)C)C(=O)N(C)[C@@H](CC(C)C)C(=O)N[C@@H](C)C(=O)N[C@H](C)C(=O)N(C)[C@@H](CC(C)C)C(=O)N(C)[C@@H](CC(C)C)C(=O)N(C)[C@@H](C(C)C)C(=O)N1C [Alisporivir]
CypA inhibitor potency (CypA [1]): low nM

CC[C@H](C)[C@H](NC(=O)[C@H]([C@@H](C)CC)N(C)C(C)=O)C(=O)N[C@H](C(=O)N[C@@H](CC(C)C)C(=O)[C@@]1(C)CO1)[C@@H](C)O [Ep, epoxomicin]
effect of 1 h pre-treatment with the substance on CypA degradation by P3 or P5 (CypA [2]): suppressed | effect of 1 h pre-treatment with the substance on CypA degradation by P3 or P5 (CypA [3]): suppressed

CC(C)C[C@@H](C=O)NC(=O)[C@H](CC(C)C)NC(=O)[C@H](CC(C)C)NC(=O)OCc1ccccc1 [MG-132] (Cbz-Leu-Leu-Leu-aldehyde)
effect of 1 h pre-treatment with the substance on CypA degradation by P3 or P5 (CypA [2]): suppressed | effect of 1 h pre-treatment with the substance on CypA degradation by P3 or P5 (CypA [3]): suppressed

Cc1ncsc1-c1ccc(CNC(=O)[C@@H]2C[C@@H](O)CN2C(=O)[C@@H](N)C(C)(C)C)cc1 [VHL ligand 1]
effect of 1 h pre-treatment with the substance on CypA degradation by P3 or P5 (CypA [2]): recovery of CypA band | effect of 1 h pre-treatment with the substance on CypA degradation by P3 or P5 (CypA [3]): recovery of CypA band
